Data as given in the supplement of paper PMC10307832.

Assays:
Experiment in all cases: relative viability (nuclei count vs DMSO), 5 days (fraction); higher = more cells survive
CUDC-101 + Pemetrexed = compound: C#Cc1cccc(Nc2ncnc3cc(OC)c(OCCCCCCC(=O)NO)cc23)c1 [CUDC-101] + Nc1nc2[nH]cc(CCc3ccc(C(=O)N[C@@H](CCC(=O)O)C(=O)O)cc3)c2c(=O)[nH]1 [Pemetrexed] (partner 0.2 µM)
In short: (§1)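 One day after seeding in 1536-well plates, lung cancer cell lines were dosed by pin tool. Dosing was either single-drug or a fixed anchor-drug dose plus five library-drug doses (not always all listed) in √10 steps. After 5 days, nuclei were stained in one fix-and-stain step and counted on 4× images, and relative viability is the nuclei count of treated wells over that of vehicle wells, given as the median of duplicate plates.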

[1] = compound: C1=CC=C2C(=C1)N=C(S2)C(C#N)C3=NC(=NC=C3)NCCC4=CN=CC=C4 + Cc1cc(Nc2cc(N3CCN(C)CC3)nc(Sc3ccc(NC(=O)C4CC4)cc3)n2)n[nH]1 [Tozasertib] (partner 0.1 µM)
In short: as §1

Vandetanib + Luminespib = compound: COc1cc2/c(=N/c3ccc(Br)cc3F)nc[nH]c2cc1OCC1CCN(C)CC1 [Vandetanib] + CCNC(=O)c1noc(-c2cc(C(C)C)c(O)cc2O)c1-c1ccc(CN2CCOCC2)cc1 [Luminespib] (partner 0.01 µM)
In short: as §1

Vandetanib + Pemetrexed = compound: COc1cc2/c(=N/c3ccc(Br)cc3F)nc[nH]c2cc1OCC1CCN(C)CC1 [Vandetanib] + Nc1nc2[nH]cc(CCc3ccc(C(=O)N[C@@H](CCC(=O)O)C(=O)O)cc3)c2c(=O)[nH]1 [Pemetrexed] (partner 0.2 µM)
In short: as §1

NCI-H2170 was tested, and the relative viability (CUDC-101 + Pemetrexed; first compound 0.01 µM) was 0.281, the relative viability (CUDC-101 + Pemetrexed; first compound 0.03162 µM) was 0.257 and the relative viability (CUDC-101 + Pemetrexed; first compound 0.1 µM) was 0.24. It also gave a relative viability (CUDC-101 + Pemetrexed; first compound 0.3162 µM) of 0.234, a relative viability (CUDC-101 + Pemetrexed; first compound 1 µM) of 0.254 and a relative viability ([1]; first compound 0.005 µM) of 0.513. It also gave a relative viability ([1]; first compound 0.01581 µM) of 0.759, a relative viability ([1]; first compound 0.05 µM) of 0.661 and a relative viability ([1]; first compound 0.1581 µM) of 0.81. It also gave a relative viability ([1]; first compound 0.5 µM) of 0.636, a relative viability (Vandetanib + Luminespib; first compound 0.02 µM) of 0.715 and a relative viability (Vandetanib + Luminespib; first compound 0.06325 µM) of 0.606. It also gave a relative viability (Vandetanib + Luminespib; first compound 0.2 µM) of 0.689, a relative viability (Vandetanib + Luminespib; first compound 0.6325 µM) of 0.616 and a relative viability (Vandetanib + Luminespib; first compound 2 µM) of 0.823. For the same cell line, the relative viability (Vandetanib + Pemetrexed; first compound 0.02 µM) was 0.278, the relative viability (Vandetanib + Pemetrexed; first compound 0.06325 µM) was 0.249 and the relative viability (Vandetanib + Pemetrexed; first compound 0.2 µM) was 0.265. For the same cell line, the relative viability (Vandetanib + Pemetrexed; first compound 0.6325 µM) was 0.262 and the relative viability (Vandetanib + Pemetrexed; first compound 2 µM) was 0.268.

For NCI-H2228, the relative viability (CUDC-101 + Pemetrexed; first compound 0.01 µM) was 0.352, the relative viability (CUDC-101 + Pemetrexed; first compound 0.03162 µM) was 0.359 and the relative viability (CUDC-101 + Pemetrexed; first compound 0.1 µM) was 0.333. For the same cell line, the relative viability (CUDC-101 + Pemetrexed; first compound 0.3162 µM) was 0.392, the relative viability (CUDC-101 + Pemetrexed; first compound 1 µM) was 0.346 and the relative viability ([1]; first compound 0.005 µM) was 0.251. For the same cell line, the relative viability ([1]; first compound 0.01581 µM) was 0.232, the relative viability ([1]; first compound 0.05 µM) was 0.211 and the relative viability ([1]; first compound 0.1581 µM) was 0.187. The relative viability ([1]; first compound 0.5 µM) was 0.226, the relative viability (Vandetanib + Luminespib; first compound 0.02 µM) was 0.153 and the relative viability (Vandetanib + Luminespib; first compound 0.06325 µM) was 0.176. The relative viability (Vandetanib + Luminespib; first compound 0.2 µM) was 0.116, the relative viability (Vandetanib + Luminespib; first compound 0.6325 µM) was 0.143 and the relative viability (Vandetanib + Luminespib; first compound 2 µM) was 0.116. The relative viability (Vandetanib + Pemetrexed; first compound 0.02 µM) was 0.284, the relative viability (Vandetanib + Pemetrexed; first compound 0.06325 µM) was 0.337 and the relative viability (Vandetanib + Pemetrexed; first compound 0.2 µM) was 0.337. For the same cell line, the relative viability (Vandetanib + Pemetrexed; first compound 0.6325 µM) was 0.343 and the relative viability (Vandetanib + Pemetrexed; first compound 2 µM) was 0.292.

NCI-H2342 was tested, and the relative viability (CUDC-101 + Pemetrexed; first compound 0.01 µM) was 0.842, the relative viability (CUDC-101 + Pemetrexed; first compound 0.03162 µM) was 0.757 and the relative viability (CUDC-101 + Pemetrexed; first compound 0.1 µM) was 0.76. The relative viability (CUDC-101 + Pemetrexed; first compound 0.3162 µM) was 0.819, the relative viability (CUDC-101 + Pemetrexed; first compound 1 µM) was 0.742 and the relative viability ([1]; first compound 0.005 µM) was 0.403. For the same cell line, the relative viability ([1]; first compound 0.01581 µM) was 0.522, the relative viability ([1]; first compound 0.05 µM) was 0.499 and the relative viability ([1]; first compound 0.1581 µM) was 0.47. The relative viability ([1]; first compound 0.5 µM) was 0.456, the relative viability (Vandetanib + Luminespib; first compound 0.02 µM) was 0.757 and the relative viability (Vandetanib + Luminespib; first compound 0.06325 µM) was 0.71. It also gave a relative viability (Vandetanib + Luminespib; first compound 0.2 µM) of 0.716, a relative viability (Vandetanib + Luminespib; first compound 0.6325 µM) of 0.754 and a relative viability (Vandetanib + Luminespib; first compound 2 µM) of 0.651. For the same cell line, the relative viability (Vandetanib + Pemetrexed; first compound 0.02 µM) was 0.728, the relative viability (Vandetanib + Pemetrexed; first compound 0.06325 µM) was 0.832 and the relative viability (Vandetanib + Pemetrexed; first compound 0.2 µM) was 0.77. For the same cell line, the relative viability (Vandetanib + Pemetrexed; first compound 0.6325 µM) was 0.801 and the relative viability (Vandetanib + Pemetrexed; first compound 2 µM) was 0.668.

NCI-H2347 was tested, and the relative viability (CUDC-101 + Pemetrexed; first compound 0.01 µM) was 0.458, the relative viability (CUDC-101 + Pemetrexed; first compound 0.03162 µM) was 0.418 and the relative viability (CUDC-101 + Pemetrexed; first compound 0.1 µM) was 0.434. For the same cell line, the relative viability (CUDC-101 + Pemetrexed; first compound 0.3162 µM) was 0.479, the relative viability (CUDC-101 + Pemetrexed; first compound 1 µM) was 0.405 and the relative viability ([1]; first compound 0.005 µM) was 0.758. The relative viability ([1]; first compound 0.01581 µM) was 0.533, the relative viability ([1]; first compound 0.05 µM) was 0.574 and the relative viability ([1]; first compound 0.1581 µM) was 0.599. It also gave a relative viability ([1]; first compound 0.5 µM) of 0.412, a relative viability (Vandetanib + Luminespib; first compound 0.02 µM) of 0.594 and a relative viability (Vandetanib + Luminespib; first compound 0.2 µM) of 0.333. For the same cell line, the relative viability (Vandetanib + Luminespib; first compound 0.6325 µM) was 0.642, the relative viability (Vandetanib + Luminespib; first compound 2 µM) was 0.574 and the relative viability (Vandetanib + Pemetrexed; first compound 0.02 µM) was 0.433. For the same cell line, the relative viability (Vandetanib + Pemetrexed; first compound 0.06325 µM) was 0.393, the relative viability (Vandetanib + Pemetrexed; first compound 0.2 µM) was 0.443 and the relative viability (Vandetanib + Pemetrexed; first compound 0.6325 µM) was 0.443. It also gave a relative viability (Vandetanib + Pemetrexed; first compound 2 µM) of 0.427.

Cell Line NCI-H2405 has a relative viability (CUDC-101 + Pemetrexed; first compound 0.01 µM) of 1.07, a relative viability (CUDC-101 + Pemetrexed; first compound 0.03162 µM) of 1 and a relative viability (CUDC-101 + Pemetrexed; first compound 0.1 µM) of 1.05. The relative viability (CUDC-101 + Pemetrexed; first compound 0.3162 µM) was 1.17, the relative viability (CUDC-101 + Pemetrexed; first compound 1 µM) was 0.967 and the relative viability ([1]; first compound 0.005 µM) was 0.714. For the same cell line, the relative viability ([1]; first compound 0.01581 µM) was 0.72, the relative viability ([1]; first compound 0.05 µM) was 0.672 and the relative viability ([1]; first compound 0.1581 µM) was 0.701. It also gave a relative viability ([1]; first compound 0.5 µM) of 0.616, a relative viability (Vandetanib + Luminespib; first compound 0.02 µM) of 0.736 and a relative viability (Vandetanib + Luminespib; first compound 0.06325 µM) of 0.539. It also gave a relative viability (Vandetanib + Luminespib; first compound 0.2 µM) of 0.776, a relative viability (Vandetanib + Luminespib; first compound 0.6325 µM) of 0.642 and a relative viability (Vandetanib + Luminespib; first compound 2 µM) of 0.55. For the same cell line, the relative viability (Vandetanib + Pemetrexed; first compound 0.02 µM) was 0.987, the relative viability (Vandetanib + Pemetrexed; first compound 0.06325 µM) was 0.982 and the relative viability (Vandetanib + Pemetrexed; first compound 0.2 µM) was 1.01. For the same cell line, the relative viability (Vandetanib + Pemetrexed; first compound 0.6325 µM) was 1.08 and the relative viability (Vandetanib + Pemetrexed; first compound 2 µM) was 0.836.

In the case of NCI-H3122, the relative viability (CUDC-101 + Pemetrexed; first compound 0.01 µM) is reported as 0.19, the relative viability (CUDC-101 + Pemetrexed; first compound 0.03162 µM) is reported as 0.21 and the relative viability (CUDC-101 + Pemetrexed; first compound 0.1 µM) is reported as 0.191. The relative viability (CUDC-101 + Pemetrexed; first compound 0.3162 µM) was 0.209, the relative viability (CUDC-101 + Pemetrexed; first compound 1 µM) was 0.22 and the relative viability ([1]; first compound 0.005 µM) was 0.46. For the same cell line, the relative viability ([1]; first compound 0.01581 µM) was 0.419, the relative viability ([1]; first compound 0.05 µM) was 0.433 and the relative viability ([1]; first compound 0.1581 µM) was 0.386. The relative viability ([1]; first compound 0.5 µM) was 0.344, the relative viability (Vandetanib + Luminespib; first compound 0.02 µM) was 0.0842 and the relative viability (Vandetanib + Luminespib; first compound 0.06325 µM) was 0.111. It also gave a relative viability (Vandetanib + Luminespib; first compound 0.2 µM) of 0.0787, a relative viability (Vandetanib + Luminespib; first compound 0.6325 µM) of 0.0959 and a relative viability (Vandetanib + Luminespib; first compound 2 µM) of 0.0934. The relative viability (Vandetanib + Pemetrexed; first compound 0.02 µM) was 0.192, the relative viability (Vandetanib + Pemetrexed; first compound 0.06325 µM) was 0.196 and the relative viability (Vandetanib + Pemetrexed; first compound 0.2 µM) was 0.201. It also gave a relative viability (Vandetanib + Pemetrexed; first compound 0.6325 µM) of 0.202 and a relative viability (Vandetanib + Pemetrexed; first compound 2 µM) of 0.208.
